Data from patent US7071383B2, “Chimeric genes and methods for increasing the lysine and threonine content of the seeds of plants” (E. I. du Pont de Nemours and Company, priority 1992, dated 2006).
Several values for one entry are separate records, joined by “and”; a condition that tells them apart may be missing. Equal values may be shown once.

How the values were obtained:
tobacco DHDPS = assay: DHDPS enzyme assay of plant extracts, sensitivity to lysine; type: biochemical
Experimental: The leaf extracts were assayed for DHDPS activity as described in Example 4.
To test this hypothesis, total protein extracts were prepared from mature seeds and assayed for DHDPS activity. Approximately 30-40 mg of seeds were put into a 1.5 mL disposable plastic microfuge tube and ground in 0.25 mL of 50 mM Tris-HCl, 50 mM NaCl, 1 mM EDTA (TNE). The grinding was done using a motorized grinder with disposable plastic shafts designed to fit into the microfuge tube. The resultant suspensions were centrifuged for 5 min at room temperature in a microfuge to remove particulates. Approximately 0.1 mL of aqueous supernatant was removed between the pelleted material and the upper oil phase. The seed extracts were assayed for DHDPS activity as described in Example 4.
To assay for expression of the chimeric genes in leaves of the transformed plants, protein was extracted as described in Example 7 for AKIII, and as described in Example 9 for DHDPS. The leaf extracts were assayed for DHDPS activity as described in Examples 4 and 9. […] Extracts were characterized immunologically for expression of AKIII and DHDPS proteins via Western blots as described in Examples 7 and 10.

DE126 = assay: Growth inhibition by L-lysine in synthetic medium; type: cell-based, E. coli
Experimental: (4) This step involves production of a male derivative of strain DE125. Strain DE125 was mated with the male strain AB1528 [F′16/delta(gpt-proA)62, lacY1 or lacZ4, glnV44, galK2 rac^−(?), hisG4, rfbd1, mgl-51, kdgK51(?), ilvC7, argE3, thi-1] (E. coli Genetic Stock Center #1528) by the method of conjugation. F′16 carries the ilvGMEDAYC gene cluster. The two strains were cross streaked on rich medium permissive for the growth of each strain. After incubation, the plate was replica plated to a synthetic medium containing tetracycline, arginine, vitamin B1 and glucose. DE125 cannot grow on this medium because it cannot synthesize isoleucine. Growth of AB1528 is prevented by the inclusion of the antibiotic tetracycline and the omission of proline and histidine from the synthetic medium. A patch of cells grew on this selective medium. These recombinant cells underwent single colony isolation on the same medium. The phenotype of one clone was determined to be Ilv^+, Arg^−, TetR, Lysine-sensitive, male specific phage (MS2)-sensitive, consistent with the simple transfer of F′16 from AB1528 to DE125. This clone was designated DE126 and has the genotype F′16/malE52::Tn10, arg^−, ilvA296, thrA1101, metL100, lysC^+, λ^−, rpsL9, malT1, xyl-7, mtl-2, thi-1?, supE44?. It is inhibited by 20 μg/mL of L-lysine in a synthetic medium.

Corynebacterium DHDPS = target: T1, Corynebacterium DHDPS (Corynebacterium glutamicum, UniProt P19808); assay: DHDPS enzyme assay, sensitivity to L-lysine; type: biochemical; settings: 70 mM L-lysine
T1 construct: made in house; host or cells: E. coli BL21(DE3), supernatant of uninduced extract
Experimental: (§1) DHDPS enzyme activity was assayed as follows: Assay mix (for 10×1.0 mL assay tubes or 40×0.25 mL for microtiter dish); made fresh, just before use:
(§2) Color allowed to develop for 30-60 min. Precipitate spun down in eppendorf centrifuge. OD540 vs 0 min read as blank. For MicroAssay, aliquot 0.2 mL into microtiter well and read at OD530.
E. coli DHDPS was sensitive to the presence of L-lysine in the assay. Fifty percent inhibition was found at a concentration of about 0.5 mM. For Corynebacterium DHDPS, the activity was measured in the supernatant fraction of uninduced extracts, rather than induced extracts. Enzyme activity was about 4 OD530 units per min per milligram protein in a 0.25 mL assay.

[1] = system: Gif106M1 transformed with pBT436; assay: Growth inhibition by lysine in M9 media; type: cell-based, E. coli
Experimental: Addition of lysine (or diaminopimelate which is readily converted to lysine in vivo) at a concentration of approximately 0.2 mM to the growth medium inhibits the growth of Gif106M1 transformed with pBT436. M9 media [see Sambrook et al. (1989) Molecular Cloning, A Laboratory Manual, Cold Spring Harbor Laboratory Press] supplemented with the arginine and isoleucine, required for Gif106M1 growth, and ampicillin, to maintain selection for the pBT436 plasmid, was used. This inhibition is reversed by addition of threonine plus methionine to the growth media. […] This property of pBT436-transformed Gif106M1 was used to select for mutations in lysC that encoded lysine-insensitive AKIII.

E. coli DHDPS = target: T2, E. coli DHDPS (Escherichia coli, UniProt P0A6L2, F2V); assay: biochemical; type: biochemical
T2 construct: the chloroplast targeting signal fused to the entire ecodapA coding region; expressed in transfected cells; host or cells: transgenic tobacco plants, leaf extracts (35S promoter) or mature seed extracts (phaseolin promoter)
Experimental: as §1, §2
For Corynebacterium DHDPS, the activity was measured in the supernatant fraction of uninduced extracts, rather than induced extracts.

AKIII-M4 = target: T3, AKIII-M4 (Escherichia coli, UniProt P08660, G401A/T352I); assay: AK enzyme assay, sensitivity to L-lysine; type: biochemical, E. coli; settings: 15 mM L-lysine
T3 construct: made in house; host or cells: E. coli BL21(DE3), crude extract
Experimental: (§3) AK activity was assayed as shown below:
(§4) Assay mix (for 12 assay tubes): • 4.5 mL H2O • 1.0 mL 8M KOH • 1.0 mL 8M NH2OH-HCl • 1.0 mL IM Tris-HCl pH 8.0 • 0.5 mL 0.2M ATP (121 mg/mL in 0.2M NaOH) • 50 μL 1M MgSO4
(§5) Each 1.5 mL eppendorf assay tube contained: • 0.64 mL assay mix • 0.04 mL 0.2 M L-aspartic acid or 0.04 mL H2O • 0.0005-0.12 mL extract • H2O to total volume 0.8 mL
(§6) Assay tubes were incubated at 30° C. for desired time (10-60 min). Then 0.4 mL FeCl3 reagent (10% w/v FeCl3, 3.3% trichloroacetic acid, 0.7 M HCl) was added and the material centrifuged for 2 min in an eppendorf centrifuge. The supernatant was decanted. The OD was read at 540 nm and compared to the aspartyl-hydroxamate standard.
(§7) Approximately 80% of the AKIII activity was in the supernatant fraction. The specific activity of wild type and mutant crude extracts was 5-7 μM product per min per milligram total protein. Wild type AKIII was sensitive to the presence of L-lysine in the assay.

Wild type AKIII = target: T4, Wild type AKIII (Escherichia coli, UniProt P08660, G401A); assay: AK enzyme assay, sensitivity to L-lysine; type: biochemical, E. coli
T4 construct: the coding region of the wild type E. coli lysC gene, which encodes AKIII; made in house; host or cells: E. coli BL21(DE3), supernatant of crude extract
Experimental: as §3, §4, §5, §6, §7

AKIII-M3 = target: T5, AKIII-M3 (Escherichia coli, UniProt P08660, G401A/T352I); assay: AK enzyme assay, sensitivity to L-lysine; type: biochemical, E. coli; settings: 15 mM L-lysine
T5 construct: made in house; host or cells: E. coli BL21(DE3), crude extract
Experimental: as §3, §4, §5, §6, §7

AKIII-M2 = target: T6, AKIII-M2 (Escherichia coli, UniProt P08660, G401A/M318I); assay: AK enzyme assay, sensitivity to L-lysine; type: biochemical, E. coli; settings: 15 mM L-lysine
T6 construct: made in house; host or cells: E. coli BL21(DE3), crude extract
Experimental: as §3, §4, §5, §6, §7

T4 sequence (P08660 other isoform, or with tags, fused parts or gaps G401A): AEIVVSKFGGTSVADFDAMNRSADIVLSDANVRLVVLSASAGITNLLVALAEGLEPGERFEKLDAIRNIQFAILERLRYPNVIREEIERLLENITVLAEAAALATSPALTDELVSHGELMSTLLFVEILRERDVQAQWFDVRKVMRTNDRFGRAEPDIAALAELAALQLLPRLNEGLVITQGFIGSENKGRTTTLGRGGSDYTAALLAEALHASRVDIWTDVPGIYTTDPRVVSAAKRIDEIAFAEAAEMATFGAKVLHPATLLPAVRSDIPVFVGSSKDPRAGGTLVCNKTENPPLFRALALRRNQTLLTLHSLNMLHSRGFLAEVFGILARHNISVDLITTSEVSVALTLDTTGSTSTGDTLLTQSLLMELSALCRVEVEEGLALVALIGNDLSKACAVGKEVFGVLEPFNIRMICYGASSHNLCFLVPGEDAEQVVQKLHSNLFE
T2 sequence (P0A6L2 whole entry F2V, the tested form may be a part): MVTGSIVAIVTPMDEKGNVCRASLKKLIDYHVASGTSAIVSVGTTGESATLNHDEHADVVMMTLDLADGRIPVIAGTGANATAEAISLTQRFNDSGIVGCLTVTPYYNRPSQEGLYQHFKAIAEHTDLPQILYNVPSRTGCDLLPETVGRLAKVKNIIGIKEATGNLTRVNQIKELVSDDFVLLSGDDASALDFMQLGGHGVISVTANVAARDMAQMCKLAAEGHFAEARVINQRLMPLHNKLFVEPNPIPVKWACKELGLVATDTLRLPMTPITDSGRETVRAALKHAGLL
T5 sequence (P08660 other isoform, or with tags, fused parts or gaps T352I/G401A): as the sequence (P08660 other isoform, or with tags, fused parts or gaps G401A) above, with T351I counted along it
T3 sequence (P08660 other isoform, or with tags, fused parts or gaps T352I/G401A): as the sequence (P08660 other isoform, or with tags, fused parts or gaps G401A) above, with T351I counted along it
T6 sequence (P08660 other isoform, or with tags, fused parts or gaps M318I/G401A): as the sequence (P08660 other isoform, or with tags, fused parts or gaps G401A) above, with M317I counted along it
T1 sequence (P19808 other isoform, or with tags, fused parts or gaps): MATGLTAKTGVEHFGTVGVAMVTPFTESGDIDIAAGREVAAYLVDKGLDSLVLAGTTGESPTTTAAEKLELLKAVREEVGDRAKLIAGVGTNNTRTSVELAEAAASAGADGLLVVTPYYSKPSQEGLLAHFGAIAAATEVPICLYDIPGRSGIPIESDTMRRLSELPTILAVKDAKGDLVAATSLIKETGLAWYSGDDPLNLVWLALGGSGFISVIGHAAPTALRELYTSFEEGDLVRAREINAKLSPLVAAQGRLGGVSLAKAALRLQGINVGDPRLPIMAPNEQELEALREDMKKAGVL

NCCCC[C@H](N)C(=O)O [L-lysine]
inhibition by lysine (tobacco DHDPS; 0.1 mM lysine, leaf extracts): completely inhibited
inhibition by lysine (tobacco DHDPS; 0.4 mM lysine, seed extracts): completely inhibited
concentration that inhibits growth (DE126): 20 µg/mL
inhibition by L-lysine (Corynebacterium DHDPS): not inhibited at all
concentration in growth medium that inhibits growth [1]: approximately 0.2 mM
IC50 (E. coli DHDPS): ~500 µM
activity retained (E. coli DHDPS; 0.1 mM lysine, leaf extracts): 80-90%
activity retained (E. coli DHDPS; 0.4 mM lysine, seed extracts): about 50%
fold less sensitive to inhibition by lysine than a typical plant DHDPS (E. coli DHDPS; vs wheat germ DHDPS): about 20 fold
inhibition by L-lysine (AKIII-M4): not inhibited at all
inhibition of wild type AKIII (Wild type AKIII; 1 mM lysine): > 90%
IC50 (Wild type AKIII; L-lysine concentration for fifty percent inhibition of AKIII, crude extract): ~400 µM and 300 to 400 µM
inhibition by L-lysine (AKIII-M3): not inhibited at all
inhibition by L-lysine (AKIII-M2): not inhibited at all
